Laboratory results: patent US5112866A, “Ethanesulfonamide derivatives” (Ortho Pharmaceutical Corporation, priority 1989, dated 1992)
Where two headings read alike, the source gives them in different places.

Tests used:
Gastric Secretion = test: Inhibition of Gastric Secretion in Rat (pylorus ligated); type: in vivo, rat (male Charles River); conditions: intraduodenal, four hours after pylorus ligation
Description: Inhibition of Gastric Secretion in Rat
Male Charles River rats weighing 150-300 grams were deprived of food but not water for 18-24 hours prior to use. Water was withheld during the experiment. The rats were weighed, anesthetized with ether and the pylorus ligated according to the method of Shay, H. et al., Gastroenterol. 26, 906 (1954). Test compounds were suspended in a 0.5% aqueous solution of methylcellulose (15 cps) and administered intraduodenally (i.d.) at the time of ligation. The rats were housed two per cage and sacrificed with CO2 four hours after ligation. The stomachs were removed and contents emptied into a graduated centrifuge tube. The tubes were centrifuged, the volume of gastric juice recorded, and any samples obviously contaminated by feces, food or blood eliminated. A 1 ml aliquot of gastric juice was titrated with 0.1 N NaOH to a pH of 7.0-7.4.
The volume of gastric juice secreted, the acid concentration, and the product of the volume times the concentration, i.e., the total amount of acid secreted, were statistically compared by a student's t-test using the pooled error variance.

[1] = tested on: Rabbit Isolated Parietal Cells; test: Inhibition of 14C-aminopyrine accumulation in stimulated rabbit isolated parietal cells; type: cell-based; conditions: Oryctolagus cuniculus, 37° C.
Excerpt: Pharmacology of the Ethanesulfonamide Compounds - Rabbit Isolated Parietal Cells
Parietal cells were isolated from the fundic mucosa of rabbit stomachs by a four-stage collagenase digestion Process. The supernatant fraction from the last two stages of this Process contained the individual parietal cells. This cell suspension was centrifuged and reconstituted in a modified Hank's buffer to contain 2-3×10^6 cells/ml. […] The accumulation is stimulated by histamine and is blocked by H2 antagonists. Accumulation of ^14 C-AP is also stimulated by dibutyryl cAMP (dbcAMP). The cells were incubated with 0.5×10^6 cpm ^14 C-AP, with various concentrations of histamine or dbcAMP, […] isobutylmethylxanthine, and test compound added in a 20 μl volume of buffer or dimethylsulfoxide. The flasks were incubated in a shaking water bath at 37° C. Two 0.5 ml aliquots were then taken from each flask and cell pellets were collected by centrifugation. The pellets were solubilized with Protosol (NEN) and radioactivity determined by liquid scintillation spectrometry.
The concentration of compound required to inhibit ^14 C-AP accumulation in the stimulated parietal cell by 50% (IC50) was determined.

tibia = test: In vivo [3H]Tetracycline incorporation into tibia, bone mitogen activity in the aged Fisher 344 rat; design: species or system rat (female Fisher 344); conditions: daily intraperitoneal, sesame oil
Description: (§1) Pharmacology of the Ethenesulfonyl Fluoride Compounds--[…] Bone Mitogen Activity in the Aged Fisher 344 Rat
(§2) Animals: Female Fisher 344 rats, 12 months of age, were housed in climate controlled light/dark (12-hour cycle) rooms and given food and water ad libitum.
(§3) Test Compounds: The test compounds were suspended in sesame oil and administered daily via intraperitoneal injections; vehicle treated rats were administered sesame oil along (2 mL/kg).
In vivo [^3 H]Tetracycline Incorporation: Tritiated tetracycline, which is rapidly concentrated in the growing skeleton, can be used as a relative measure of bone forming surface in vivo. [^3 H]Tetracycline was injected intraperitoneally at a dose of 0.125 μCi/g body weight in a 0.9% NaCl solution. Two hours after injection, rats were bled by cardiac puncture and then killed by CO2 asphyxiation and the tibia removed and cleaned of tissue and marrow. The tibia are homogenized and digested in 2 N NaOH for 2 hours. The precipitate is washed and then hydrolyzed in 6N Hcl. An aliquot of the resulting supernatant is analyzed for tritiutum.

[2] = tested on: Mouse osteoblastic-line cells (MC3T3-El); test: Mouse Osteoblast-line Cell Proliferation (3H-thymidine); type: cell-based; conditions: 0.1% FBS
Description: Pharmacology of the Ethenesulfonyl Fluoride Compounds--In Vitro Mouse Osteoblast-line Cell Proliferation
Reagents: Mouse osteoblastic-line cells (MC3T3-El) were plated in Dulbeccos Modified Eagles Medium (DMEM) with 25 mM Hepes Buffer, L-Glutamine, D-Glucose(4.5 gm/1) supplemented with 10% fetal bovine sera, Penicillin (100 units/ml) and Streptomycin ([…]) (Penicillin-Streptomycin liquid) and sodium pyruvate (10 μM final concentration). ^3 H-Thymidine (6.7 Ci/mmole) was diluted in DMEM media without FBS and filter sterilized. An aliquot of this solution was delivered to each culture well to a final concentration of ^3 H-thymidine of 0.4 μCi per well (2 μCi/ml).
Test Preparations: Solutions of the test compound were made on the day before incubation. These compounds were solubilized in either ethanol or DMSO at a concentration of 100 mM containing 0.1% FBS. The solutions were filter sterilized and then sterile serial dilutions were performed with DMEM media containing 0.1% FBS.
Osteoblast line cells were plated into 96 well culture plates, 1600 cells in 100 μL per well in DMEM with 25 mM Hepes Buffer, L-Glutamine, D-Glucose (4.5 gm/L) supplemented with 10% fetal bovine sera, Penicillin (100 units/mL) and Streptomycin (100 μg/mL) and sodium Pyruvate (10 μM final concentration). The media was replaced with DMEM containing no FBS and the cells were then incubated for an additional 24 hours. The following day, test compounds were added and screened at concentrations ranging from 10^-10 to 10^-5 M in the Presence of 0.1% FBS. The cells were then incubated an additional 20 hours. At this time 0.4 μ/Ci of 3H-thymidine was added to each culture well and the cells were incubated an additional 4 hours. The cells were then harvested with a Skatron Cell Harvester onto a glass fiber filter and washed with water, %5 trichloroacetic acid (TCA) and then 95% ethanol. The filters were then processed and counted on the LKB beta plate scintillation counter.

bone protein = test: In vivo [3H]Proline incorporation into bone protein, bone mitogen activity in the aged Fisher 344 rat; design: species or system rat (female Fisher 344); conditions: daily intraperitoneal, sesame oil
Description: as §1, §2, §3
In vivo [^3 H]Proline Incorporation: [^3 H]Proline incorporation into bone protein was carried out as previously described (Reddi and Huggins, 1975). [^3 H]Proline was injected intraperitoneally at a dose of 0.5 μCi/g body weight in 0.9% NaCl. Four hours after the injection, rats were bled by cardiac puncture and then killed by CO2 asphyxiation and the tibia removed and the radioactivity quantified as in Example 28.

[3] = cited from earlier work
osteoblasts = conditions: Farley, et al., Science, 1983; cited from earlier work
[4] = 14C-AP accumulation stimulated by dibutyryl cAMP, read-out: IC50 (dbcAMP)
[5] = 14C-AP accumulation stimulated by histamine, read-out: IC50 (H)

Row | Structure (SMILES) | IC50 [1, 4] [µM] | IC50 [1, 5] [µM] | % Reduction of Total Acid Output (Gastric Secretion; Dose 20 MPK) [%] | Percent Incorporation of [3H]Tetracycline of Control (tibia; 50 mg/Kg) | Mouse Osteoblast-line Cell Proliferation [Expressed as a Percent of Control] ([2]; 0.001 μM) | Mouse Osteoblast-line Cell Proliferation [Expressed as a Percent of Control] ([2]; 0.01 μM) | Mouse Osteoblast-line Cell Proliferation [Expressed as a Percent of Control] ([2]; 0.1 μM) | Mouse Osteoblast-line Cell Proliferation [Expressed as a Percent of Control] ([2]; 1.0 μM) | Mouse Osteoblast-line Cell Proliferation [Expressed as a Percent of Control] ([2]; 10 μM) | also measured
1 | COc1cc(NCCS(=O)(=O)F)c(C(C)=O)cc1OC [Example 14] |  |  |  | 119.6 Percent Incorporation of Contr | 120.9% of Control | 159.5% of Control | 125.3% of Control | 170.3% of Control | 180.3% of Control | Percent Incorporation of [3H]Proline of Control (bone protein; 15 mg/Kg): 100.7 Percent Incorporation of Contr; Percent Incorporation of [3H]Proline of Control (bone protein; 50 mg/Kg): 118.1 Percent Incorporation of Contr; Percent Incorporation of [3H]Proline of Control (bone protein; 150 mg/Kg): 121.0 Percent Incorporation of Contr
2 | O=S(=O)(F)CCNc1ccc(Cl)cc1 [Example 15] |  |  |  | 125.1 Percent Incorporation of Contr | 129.6% of Control | 119.9% of Control | 123.5% of Control | 93.4% of Control | 106.7% of Control | Percent Incorporation of [3H]Tetracycline of Control (tibia; 15 mg/Kg): 118.0 Percent Incorporation of Contr; Percent Incorporation of [3H]Tetracycline of Control (tibia; 25 mg/Kg): 114.0 Percent Incorporation of Contr
3 | [F-].[Na+] [sodium fluoride, Sodium fluoride] |  |  |  |  |  |  |  |  |  | rate of bone fracture ([3]; fluoride treatment, Riggs, et al., N. Engl. J. Med., 1982): significantly decreased; adverse reactions ([3]; in vivo): gastrointestinal side effects (nausea, vomiting, diarrhea and bleeding) and rheumatic complications (synovitis and plantar fascial syndrome); bone formation and bone mass ([3]; osteoporosis): increases bone formation and leads to an increase in bone mass in osteoporosis; proliferation and activity of bone forming cells, osteoblasts (osteoblasts): causes proliferation and increases the activity of bone forming cells, osteoblasts

The next lines start with results.

Row | IC50 [1, 4] [µM] | IC50 [1, 5] [µM] | Structure (SMILES) | % Reduction of Total Acid Output (Gastric Secretion; Dose 20 MPK) [%] | Percent Incorporation of [3H]Tetracycline of Control (tibia; 50 mg/Kg) | Mouse Osteoblast-line Cell Proliferation [Expressed as a Percent of Control] ([2]; 0.001 μM) | Mouse Osteoblast-line Cell Proliferation [Expressed as a Percent of Control] ([2]; 0.01 μM) | Mouse Osteoblast-line Cell Proliferation [Expressed as a Percent of Control] ([2]; 0.1 μM) | Mouse Osteoblast-line Cell Proliferation [Expressed as a Percent of Control] ([2]; 1.0 μM) | Mouse Osteoblast-line Cell Proliferation [Expressed as a Percent of Control] ([2]; 10 μM) | also measured
4 | 0.31 | 0.16 | O=S(=O)(CCNc1ccc(Cl)c(C(F)(F)F)c1)NCCCOc1cccc(CN2CCCCC2)c1 [Example 9, 2-[(4-Chloro-3-trifluoromethylphenyl)amino]-N-[3-[3-(piperidinomethyl)phenoxy]propyl]ethanesulfonamide] |  |  |  |  |  |  |  | % Reduction of Total Acid Output (Gastric Secretion; Dose 40 MPK): 24.7%
5 | 0.23 | 0.28 | CCCCc1ccc(NCCS(=O)(=O)NCCCOc2cccc(CN3CCCCC3)c2)cc1 [Example 10, 2-[(4-Butylphenyl)amino]-N-[3-[3-(piperidinomethyl)phenoxy]propyl]ethanesulfonamide] | 23.3 |  |  |  |  |  |  | 
6 | 0.46 | 0.058 | CC1CCN(Cc2cccc(OCCCNS(=O)(=O)CCNc3ccc(Cl)c(Cl)c3)c2)CC1 [Example 11, 2-[(3,4-Dichlorophenyl)amino]-N-[3-[3-[(4-methylpiperidin-1-yl)methyl]-phenoxy]propyl]ethanesulfonamide] | 29.0 |  |  |  |  |  |  | 
